Values of other authors as cited in publication PMC9187593 (Bioorganic chemistry, 2022).

System: ICR mice
Settings: positive controls

Row | SMILES | Effect on IP acid-stimulated stretching
1 | COc1ccc2c3c1O[C@H]1C(=O)CC[C@@]4(O)[C@@H](C2)N(C)CC[C@]314 [oxycodone] | dose-dependent and significant decrease in IP acid-stimulated stretching
2 | CC(C(=O)O)c1cccc(C(=O)c2ccccc2)c1 (centres unmarked) [ketoprofen] | dose-dependent and significant decrease in IP acid-stimulated stretching
